Here are results for two molecules from patent US6821926B1, “Carbamoyl triazolinone based herbicide” (Bayer Aktiengesellschaft, priority 1999, dated 2004).

Molecules are shown by their SMILES.

Common to all, as to assay: Pre-emergence/greenhouse herbicidal test, % damage
Assay type in all cases: in vivo

Experiment [1] has as its system Abutilon. The settings on record: pre-emergence, after approximately 3 weeks. On the procedure:
(§1) Customary formulations of the respective active compounds were used. Butafenacil was employed as Inspire® 100 EC, azafenidin as an 80 WG formulation and the compound of the formula (I-1) as a 70 WG formulation. The active compounds were used to prepare an aqueous spray mixture with 0.1% of Renex-36 as additive. Pre-emergence/greenhouse Seeds of the test plants are sown in standard soil. After 24 hours, the test compound or the combination of test compounds, is sprayed onto the soil surface in such a manner as to apply the amount of active compound per unit area desired in each case. The concentration of the spray mixture is chosen so that the desired amounts of active compound desired are applied in 500 l of water per ha. After the spray application, the plant containers are placed in the greenhouse under constant light and temperature conditions. After approximately 3 weeks, the degree of damage of the crop plants is scored in % damage in comparison with the development of the untreated control. The figures denote: 0%=no damage (as untreated control) 100%=Total destruction/damage

The test system of experiment [2] is Alopecurus. The conditions noted are these: pre-emergence, after approximately 3 weeks. On the procedure: as §1
Experiment [3] relates to Cassia. The conditions noted are these: pre-emergence, after approximately 3 weeks. The protocol:
as §1

The subject of experiment [4] is Datura. The conditions noted are these: pre-emergence, after approximately 3 weeks. On the procedure:
as §1

Experiment [5] has as its system Digitaria. The conditions noted are these: pre-emergence, after approximately 3 weeks. The protocol: as §1
For experiment [6], the system named is Galium. The settings on record: pre-emergence, after approximately 3 weeks. On the procedure: as §1
Experiment [7] concerns Ipomea. The conditions noted are these: pre-emergence, after approximately 3 weeks. On the procedure:
as §1

In experiment [8] the test system is Setaria. The conditions noted are these: pre-emergence, after approximately 3 weeks. On the procedure:
as §1

Experiment [9] concerns Solanum. The settings on record: after approximately 3 weeks. On the procedure:
as §1

The subject of experiment [10] is Xanthium. The settings on record: pre-emergence, after approximately 3 weeks. On the procedure:
as §1

Regarding `C=CCOC(=O)C(C)(C)OC(=O)c1cc(-n2c(=O)cc(C(F)(F)F)n(C)c2=O)ccc1Cl` [Butafenacil, [1,1-dimethyl-2-oxo-2-(2-propenyloxy)]-ethyl 2-chloro-5-(3,6-dihydro-3-methyl-2,6-dioxo-4-trifluoromethyl-1(2H)-pyrimidinyl)-benzoate], in experiment [1] (2 g ai/ha), the Abutilon observed is reported as 30%. The Alopecurus observed in experiment [2] (0.5 g ai/ha) and in experiment [2] (2 g ai/ha) was 0% throughout. The Cassia observed in experiment [3] (0.5 g ai/ha) is 0%. Also, in experiment [4] (2 g ai/ha), the Datura observed is given as 30%. Moreover, the Digitaria observed in experiment [5] (0.5 g ai/ha) and in experiment [5] (1 g ai/ha) was 20% each time. Besides, the Galium observed in experiment [6] (1 g ai/ha) was determined as 0%. Also, in experiment [7] (0.5 g ai/ha), the Ipomea observed turned out to be 0%. Also, the Setaria observed in experiment [8] (0.5 g ai/ha) and in [8] (2 g ai/ha) was 0% each time. For the same molecule, the Solanum observed in experiment [9] (pre-emergence, 0,5 g ai/ha) came out at 0%; in experiment [9] (pre-emergence, 1 g ai/ha), 0%; in [9] (pre-emergence, 2 g ai/ha) it was 0%. In addition, the Xanthium observed in experiment [10] (2 g ai/ha) was determined as 0%.
For `CC(C)c1nn(C(=O)NC(C)(C)C)c(=O)n1N` [Compound (I-1), 4-amino-5-(1-methyl-ethyl)-2-(1,1-dimethyl-ethyl-aminocarbonyl)-2,4-dihydro-3H-1,2,4-triazol-3-one], in experiment [1] (60 g ai/ha), the Abutilon observed was 50%. The Alopecurus observed in experiment [2] (125 g ai/ha) was 0%. Further, the Cassia observed in experiment [3] (60 g ai/ha) is on record as 30%. Further, the Datura observed in [4] (60 g ai/ha) was found to be 50%. For the same molecule, the Digitaria observed in experiment [5] (125 g ai/ha) was 40%. Also, the Galium observed in experiment [6] (125 g ai/ha) is recorded as 80%. The Ipomea observed in [7] (125 g ai/ha) turned out to be 50%. In addition, the Setaria observed in [8] (125 g ai/ha) is reported as 0%. In experiment [9] (pre-emergence, 60 g ai/ha), the Solanum observed stood at 90%. For the same molecule, the Xanthium observed in experiment [10] (125 g ai/ha) was found to be 90%.
